{"source": "patent US9610294B2", "about": "“Methods and compositions for the treatment of fluid accumulation in and/or under the retina” (UNIVERSITE PARIS DESCARTES, priority 2010, dated 2017)", "key": {"ENaC-α": {"system": "ENaC-α", "assay": "ENaC-α expression (real-time PCR, western blot) in rat RMG primary cultures and retinal explants", "format": "cell-based", "details": "for aldosterone-induced increase in ENaC-α subunit transcripts in presence of antagonist: 10 nM aldosterone plus 1 µM antagonist, 24 hrs", "protocol": "(§1) Rat RMG cells were obtained as described (deKozak, Y., Naud, M. C., Bellot, J., Faure, J. P., and Hicks, D. (1994) Differential tumor necrosis factor expression by resident retinal cells from experimental uveitis-susceptible and -resistant rat strains. J Neuroimmunol 55, 1-9). Briefly, rats at postnatal (PN) day 17 (when RMG cells are mature) were sacrificed and eyes enucleated. Intact eyeballs were maintained in DMEM overnight at room temperature in the dark, and then incubated 45 min with 2 mg/ml trypsin/collagenase I at 37° C. The neural retinas were separated from the lens and vitreous, cut into small fragments and plated in Petri dishes containing DMEM supplemented with 10% FCS, 100 units/ml penicillin, 100 µg/ml streptomycin, and 0.2% amphotericin B. Cultures were maintained at 37° C. in a humidified atmosphere containing 5% CO2. After 5 to 6 days, the cultures were washed extensively with medium so that only a strongly adherent flat cell population remained.\n(§2) Müller cells were seeded in 6-well tissue culture plates (Becton Dickinson, Le Pont de Claix, France). Rat PN17 RMG cells were maintained in their initial Petri dishes. Sub confluent (80%) cells were incubated in media supplemented with 10% steroid-free (charcoal treated) FCS for 24 hrs. Corticosteroid (Sigma-Aldrich, Saint Quentin Fallavier, France) treatments were then applied respectively for a further 24 hrs: 10 nM aldosterone, 10 nM aldosterone plus 1).IM RU38486 (GR-specific antagonist), 10 nM aldosterone plus 1 µM RU26752 (MR-specific antagonist) or 1 µM dexamethasone. The steroids were previously dissolved in 2% steroid-free FCS media containing 0.1% ethanol. Control cells were treated with 0.1% ethanol in media.\n(§3) After enucleation, rat retinas were isolated immediately under aseptic conditions and cut into 4 pieces. They were then transferred onto a Cyclopore 0.2).Im polycarbonate membrane (Whatman, Maidstone, England), and flatmounted with the vitreal side up. The support membranes were placed in 6-well tissue culture plates containing 2 ml DMEM supplemented with 10% steroid-free FCS, 1% penicillin-streptomycin and 0.1% amphotericin B. Explants were treated with corticosteroids as described for cultured cells. Similarly, the dose-dependent effect of aldosterone (0.1-100 nM) was analyzed on retinal explants in separate experiments.\n(§4) Total RNA was isolated from the treated RMG cells and retinal explants using RNeasy Mini Kit (Qiagen, Courtaboeuf, France). First-strand cDNA was synthesized after DNase I (Qiagen) treatment using random primers (Invitrogen) and superscript II reverse transcriptase (Invitrogen). Transcript levels of ENaC-a, Kir4.1 and AQP4 were analyzed by real-time PCR performed in 7500 Real-Time PCR System (Applied Biosystems, Foster City, Calif., USA) with either TaqMan® (Applied Biosystems) or SYBR® Green (Invitrogen, Cergy Pontoise, France) detection. The 18S was used as internal control.\n(§5) Retinal explants were homogenized in Np40 buffer in the presence of protease inhibitors. The protein concentration was determined by the Bradford method. Equal amounts of protein (12 .ug) were separated on Novex® 4%-12% Tris-Glycine gel (Invitrogen), transferred to nitrocellulose, and the blots were incubated with primary antibodies at 4° C. overnight. The membranes were washed, incubated with horse radish peroxidase conjugated goat anti-rabbit IgG (1:3000, Vector, AbCys, Paris, France) for 1 hr at room temperature, and developed using ECL Plus western blotting detection reagents (GE healthcare, Orsay, France). The j3-actin was used as internal control. The following primary antibodies were used: rabbit anti-alpha ENaC (1:500, Abcam, Cambridge, Mass., USA), rabbit anti-Kir4.1 (1:400, Alomone Labs, Jerusalem, Israel), rabbit anti-AQP4 (1:750, Millipore, St Quentin en Yvelines, France) and rabbit anti-j3-actin (1:1000, Abcam)"}, "AQP4 [1]": {"system": "AQP4", "assay": "AQP4 mRNA expression in RMG cells (Example 2)", "format": "cell-based", "from_the_text": "We have performed several experiments."}, "AQP4 [2]": {"system": "AQP4", "assay": "AQP4 expression (real-time PCR, western blot) in rat RMG primary cultures and retinal explants", "format": "cell-based", "details": "for aldosterone induction of AQP4 mRNA in presence of antagonist: 10 nM aldosterone plus 1 µM antagonist, 24 hrs", "protocol": "as §1, §2, §3, §4, §5"}, "Kir4.1": {"system": "Kir4.1", "assay": "Kir4.1 expression (real-time PCR, western blot) in rat RMG primary cultures and retinal explants", "format": "cell-based", "details": "for aldosterone-induced Kir4.1 up-regulation in presence of antagonist: 10 nM aldosterone plus 1 µM antagonist, 24 hrs", "protocol": "as §1, §2, §3, §4, §5"}, "retina [3]": {"system": "retina", "assay": "Intraocular injection in Brown Norway rats (gain of function mutation in the MR gene): CSCR-like retinal pathology", "format": "in vivo", "details": "FIGS. 1 and 2"}, "[4]": {"system": "sub retinal and/or intra retinal fluid", "assay": "Oral eplerenone in patients with CSCR or chronic diffuse epitheliopathy", "format": "in vivo, human", "details": "for recurrence: at 6 months", "from_the_text": "Patients with non-resolutive or chronic diffuse epitheliopathy presenting with macular fluid accumulation have been treated with oral eplerenone, a specific MR antagonist. […] On the contrary, 4 months later and at 1 week before treatment, the amount of fluid had accumulated. […] They have a long history of recurrent CSCR on both eyes. In their left eye (OS), they present a macular edema with sub retinal fluid and retinal cysts. The left eye vision is reduced to 1/10 and the edema is chronic since more than 2 years. They have been treated with eplerenone 25 mg/day for 8 days and then 50 mg/days for 3 month. […] Moreover, vision in the left eye recovered to 6/10. No recurrence was observed on none of the eyes even at 6 months."}, "retina [5]": {"system": "retina", "assay": "Intravitreal spironolactone in GK diabetic rats: electroretinograms (ERG)", "format": "in vivo, Goto-Kakizaki (GK) rats", "details": "18 months diabetic GK rats, intravitreous 1 μM at day 1,3,5; 24 hrs after last injection, FIG. 7", "protocol": "In 18 months-old GK rats, electroretinogramms were preformed (ERG).\n18 months diabetic rats were treated with intravitreous injections (1 μM) at day 1,3,5 and animals were re tested for ERGs 24 hrs after each injection."}, "retina [6]": {"system": "retina", "assay": "Intravitreal spironolactone in GK diabetic rats: retinal histology", "format": "in vivo, Goto-Kakizaki (GK) rats", "protocol": "Goto-Kakizaki (GK) rats have been used as model for diabetic retinopathy. GK rats (Taconic Europe, Denmark), a Wistar non-obese model of Non-Insulin Dependent type 2 Diabetes were used at different ages of hyperglycemia. Glycemia was measured using Accutrend GC and Accu-check compact equipments (Roche) and plasma glucose >250 mg/dl was considered as diabetic state. […] Controls were selected from age-matched non-diabetic rats and with plasma glucose <150 mg/dl. […] 18 months diabetic rats were treated with intravitreous injections (1 μM) at day 1,3,5 and animals were re tested for ERGs 24 hrs after each injection. 24 hrs after the third injection, animals were sacrificed and the retina were analyzed using semi-thin sections."}, "[7]": {"details": "18 months GK rats, 3 intravitreous injections 1 μM, vs vehicle, FIG. 8"}, "[8]": {"details": "GK diabetic rats, intraocular, conclusion"}, "[9]": {"details": "GK rats, 1 μM final in the vitreous, 24 hrs after injection, FIG. 6"}}, "note": "Where two headings read alike, the source gives them in different places.", "data": [{"compound": "CCC[C@@H]1CC2=CC(=O)CC[C@]2(C)[C@H]2CC[C@@]3(C)[C@@H](CC[C@@]34CCC(=O)O4)[C@H]12", "note": "[RU26752]", "values": [{"measurement": "aldosterone-induced increase in ENaC-α subunit transcripts in presence of antagonist", "setting": "ENaC-α", "value": "inhibited"}, {"measurement": "aldosterone-induced ENaC protein in presence of MR antagonist", "setting": "ENaC-α; western blot, retinal explants", "value": "not reduced"}, {"measurement": "aldosterone induction of AQP4 mRNA on co-administration of MR antagonist", "setting": "AQP4 [1]", "value": "completely blocks the induction"}, {"measurement": "aldosterone induction of AQP4 mRNA in presence of antagonist", "setting": "AQP4 [2]", "value": "fully suppressed"}, {"measurement": "aldosterone-induced AQP4 protein in presence of MR antagonist", "setting": "AQP4 [2]; western blot", "value": "blocked"}, {"measurement": "aldosterone-induced Kir4.1 up-regulation in presence of antagonist", "setting": "Kir4.1", "value": "weaker (or no) effect"}, {"measurement": "aldosterone-induced Kir4.1 protein in presence of MR antagonist", "setting": "Kir4.1; western blot", "value": "reduced"}]}, {"compound": "CC#C[C@]1(O)CC[C@H]2[C@@H]3CCC4=CC(=O)CCC4=C3[C@@H](c3ccc(N(C)C)cc3)C[C@@]21C", "note": "[RU38486]", "values": [{"measurement": "aldosterone-induced increase in ENaC-α subunit transcripts in presence of antagonist", "setting": "ENaC-α", "value": "inhibited"}, {"measurement": "aldosterone induction of AQP4 mRNA in presence of antagonist", "setting": "AQP4 [2]", "value": "reduces somehow"}, {"measurement": "aldosterone-induced Kir4.1 up-regulation in presence of antagonist", "setting": "Kir4.1", "value": "fully efficient to reduce it"}]}, {"compound": "C[C@]12C[C@H](O)[C@H]3[C@@H](CCC4=CC(=O)CC[C@@]43C)[C@@H]1CC[C@@H]2C(=O)CO", "note": "[corticosterone]", "values": [{"measurement": "retinal pathology after intraocular injection", "setting": "retina [3]", "value": "develop a retinal pathology very close to CSCR"}]}, {"compound": "COC(=O)[C@@H]1CC2=CC(=O)CC[C@]2(C)[C@@]23O[C@@H]2C[C@@]2(C)[C@@H](CC[C@@]24CCC(=O)O4)[C@H]13", "note": "[eplerenone, Pregn-4-ene-7,21-dicarboxylic acid, 9,11-epoxy-17-hydroxy-3-oxo-,γ-lactone, methyl ester, (7α,11α,17β)]", "values": [{"measurement": "sub retinal fluid", "setting": "[4]; FIG. 3 patient, CSCR unresolved for 4 months, 25 mg/day orally for 8 days", "value": "striking reduction"}, {"measurement": "recurrence", "setting": "[4]; FIG. 3 patient, treatment discontinued after 4 weeks", "value": "did not show any recurrence"}, {"measurement": "sub retinal fluid", "setting": "[4]; FIG. 3 patient, then 50 mg/day for 8 days, after 2 weeks of treatment", "value": "almost complete resolution"}, {"measurement": "sub retinal fluid", "setting": "[4]; FIG. 4 patient, chronic CSCR, 25 mg/day for 8 days then 50 mg/day, 15 days after treatment", "value": "complete resolution"}, {"measurement": "macular cysts", "setting": "[4]; FIG. 4 patient, chronic CSCR, 15 days after treatment", "value": "total resolution"}, {"measurement": "recurrence", "setting": "[4]; FIG. 4 patient, both eyes", "value": "No recurrence"}, {"measurement": "vision in the left eye", "setting": "[4]; FIG. 4 patient, reduced to 1/10 before treatment", "value": "6/10"}, {"measurement": "kinetics of efficacy", "setting": "[4]; patients, oral eplerenone", "value": "as early as the first week of use"}, {"measurement": "regression of sub retinal and/or intra retinal fluid", "setting": "[4]; patients, oral eplerenone, FIGS. 3 and 4", "value": "very rapid and efficient regression"}]}, {"compound": "CC(=O)S[C@@H]1CC2=CC(=O)CC[C@]2(C)[C@H]2CC[C@@]3(C)[C@@H](CC[C@@]34CCC(=O)O4)[C@H]12", "note": "[spironolactone, 17-hydroxy-7α-mercapto-3-oxo-17α-pregn-4-ene-21-carboxylic acid γ-lactone acetate]", "values": [{"measurement": "ERG b-wave after treatment compared to before treatment", "setting": "retina [5]", "value": "significantly increased"}, {"measurement": "edema in inner/outer (IS/OS) segments and outer nuclear layer (ONL)", "setting": "retina [6]; [7]", "value": "decreased"}, {"measurement": "vasodilation in the choriocapillaries", "setting": "retina [6]; [7]", "value": "reduced"}, {"measurement": "formation of outer segments", "setting": "retina [6]; [8]", "value": "improves"}, {"measurement": "retinal edema", "setting": "retina [6]; [8]", "value": "efficiently reduces"}, {"measurement": "fluid accumulation in the outer nuclear layer (photoreceptor layer)", "setting": "retina [6]; [9]", "value": "have decreased"}, {"measurement": "thickness of the outer retina", "setting": "retina [6]; [9]", "value": "decreased"}]}, {"compound": "C[C@]12C=CC(=O)C=C1CC[C@H]1[C@@H]3C[C@@H](O)[C@](O)(C(=O)CO)[C@@]3(C)C[C@H](O)[C@@]12F", "note": "[triamcinolone]", "values": [{"measurement": "expression of the water channel AQP4", "setting": "AQP4 [1]", "value": "reduces the expression of AQP4"}, {"measurement": "expression of the water channel AQP4", "setting": "AQP4 [1]; listed as triamcinolone acetonide", "value": "same effect as a MR antagonist"}]}]}
